Source: patent US20110191897A1, “Plants Tolerant to HPPD Inhibitor Herbicides” (Bayer CropScience AG, priority 2009, published 2011)

Columns and labels:
[1] = tested on: rice shoots transformed with FMP37e; assay: Bleaching of transformed rice shoots on MS/2 with tembotrione; type: in vivo; details: 2 weeks
Method: Rice transformation is achieved using methods well known in the art. Briefly, the Agrobacterium tumefaciens mediated transformation of rice was performed using immature embryos, from the restorer line 6G4317. Briefly, panicles from donor plants were harvested 8-12 days after pollination. The lemma of the immature seed was removed. Seeds were thereafter sterilized using a NaOCl based solution and Tween. The seeds were preinduced with acetylsalicylic acid. Agrobacterium tumefaciens cells were then co-cultivated with the preinduced seeds in presence of acetosyringone for 4 days at 24° C. in the dark. Thereafter, coleoptile from embryos were removed and washed, then put on a media supplemented with phosphinothricin for 3 weeks at 28° C. under a photoperiod rhythm of 16 hours. Then the growing calli were cut off from the embryos, and transferred to fresh media containing triacillin, phosphinothricin, L-proline and copper (II) sulfate.
For each callusline and per Tembotrione concentration, 3 shoots, and randomly isolated from different callus pieces, were transferred to MS/2 with Tembotrione. As a general rule, transfer of the shoots from regeneration medium to MS/2 occurred 9 weeks after calli had been put on regeneration medium.
Cultures were incubated at 26.5° C. (16 hrs. photoperiod) and evaluation of symptoms occurred 2 weeks later.
New developing leaves of the shoots transferred have been scored on the basis of bleaching and categorized in 3 groups:
a) no bleaching b) intermediate bleaching c) complete bleaching
Within the category ‘intermediate bleaching’ a distinction has been made between shoots having new leaves showing only very little bleaching symptoms and thus tending to green leaves, and shoots with new leaves almost completely bleached.

[2] = tested on: tobacco calli containing HPPD SEQ ID No. 7 (Blepharisma japonicum); assay: Rooting of transformed tobacco calli on tembotrione media; type: cell-based, Nicotiana tabacum; details: 6 to 12 weeks
Method: The leaf disks were co-cultivated for 2 days with Agrobacterium tumefaciens cells containing either the binary vector FMP37ebv or AtHPPDbv. Then the leaf disks were transferred to a media allowing the regeneration of shoots for 6 weeks on MS (Musharige and Skoog, (1962), Physiol Plant 15(3): 473-497) media supplemented with BAP (1 mg/mL; Benzylaminopurine), carbenicillin (250 mg/mL), cefotaxine (250 mg/mL), kanamycin (75 mg/mL) and tembotrione (10^−6 M)
Regenerated calli were transferred on media to induce the development of roots for 6 to 12 weeks: MS (½), supplemented with carbenicillin (250 mg/mL), cefotaxine (250 mg/mL), kanamycin (75 mg/mL), and tembotrione (10^−6 M).
Regenerated shoot calli from a cell transformed with a nucleic acid sequence encoding an HPPD comprising SEQ ID No. 11 (Arabidopsis thaliana) or SEQ ID No. 7 (Blepharisma japonicum) were transferred to a media inducing rot growth which media was further supplemented with the HPPD inhibitor tembotrione for 6 to 12 weeks.

[3] = tested on: soybean events expressing the FMP37 HPPD protein; assay: Soybean greenhouse treatment with tembotrione; type: in vivo; details: 100 g Al/ha, eight events
Method: Plants containing the transgene were then sprayed with HPPD inhibitor herbicides, as for example with tembotrione at a rate of 100 g Al/ha. Ten days after the application the symptoms due to the application of the herbicide were evaluated and compared to the symptoms observed on a wild type plants under the same conditions.
Eight events expressing the FMP37 HPPD protein have been generated from the green shoots of above and were transferred to the greenhouse. Four weeks after acclimation, i.e. plants at a developmental stage of 3-4 internodes were treated with 100 g Al/ha tembotrione prepared from a WP 20 formulation supplemented with ammonium sulfate and methyl ester raps oil. Ten days after application, the symptoms caused by the application of the HPPD inhibitor herbicide were evaluated and compared to the symptoms observed on treated non-transgenic wild-type soybean plants.

Q: Which results are given for `CS(=O)(=O)c1ccc(C(=O)C2C(=O)CCCC2=O)c(Cl)c1COCC(F)(F)F` [Tembotrione, 2-[2-chloro-4-(methylsulfonyl)-3-[(2,2,2,-tri-fluoroethoxy)methyl]benzoyl]-1,3-cyclo-hexanedione]?
A: N° of shoots completely bleached ([1]; 1 μM): 17; N° of shoots with intermediate bleaching ([1]; 1 μM): 24; N° of shoots completely bleached ([1]; 5 μM): 43; N° of shoots with intermediate bleaching ([1]; 5 μM): 17; % Elongation & rooting on 10^−6M tembotrione [2]: 65%; events with bleaching like non-transgenic wild-type soybean plant [3]: two events; events with local transitory bleaching symptoms, recovered completely 7 days after application [3]: One other event; events with transitory light bleaching symptoms, recovered 14 days after application [3]: One event; events without any bleaching phenotype ([3]; ten days after application): Four of the eight events
